The record followed here is patent US20220056043A1, “NITROGEN-CONTAINING FUSED CYCLIC COMPOUND, PREPARATION METHOD THEREFOR AND USE THEREOF” (SICHUAN KELUN-BIOTECH BIOPHARMACEUTICAL CO., LTD., priority 2019, published 2022).

One series addresses T1, CYP1A2 (Homo sapiens, UniProt P05177).
T1 construct: purchased
T1 sequence (P05177 1-516): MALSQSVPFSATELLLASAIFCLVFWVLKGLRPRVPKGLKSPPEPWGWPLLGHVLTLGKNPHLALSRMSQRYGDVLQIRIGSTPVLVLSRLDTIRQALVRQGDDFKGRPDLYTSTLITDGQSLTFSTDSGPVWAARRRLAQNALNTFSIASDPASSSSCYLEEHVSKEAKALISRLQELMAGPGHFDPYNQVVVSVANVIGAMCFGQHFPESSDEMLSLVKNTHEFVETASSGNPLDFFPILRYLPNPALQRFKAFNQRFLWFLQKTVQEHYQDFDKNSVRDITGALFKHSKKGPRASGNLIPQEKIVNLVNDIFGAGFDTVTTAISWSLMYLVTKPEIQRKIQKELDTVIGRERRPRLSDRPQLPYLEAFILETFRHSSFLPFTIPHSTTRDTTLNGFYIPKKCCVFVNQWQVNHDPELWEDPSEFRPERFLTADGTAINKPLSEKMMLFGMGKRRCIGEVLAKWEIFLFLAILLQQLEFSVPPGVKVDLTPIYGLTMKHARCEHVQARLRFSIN
Put plainly: CYP enzyme inhibition test, P450-Glo CYP1A2 Screening System. Format: in vitro ADME. The note with it: for inhibitory effect on CYP1A2: conclusion in words. The method, then:
(§1) Experimental Example 6: CYP Enzyme Inhibition Test CYP450 is the most important enzyme system in drug metabolism. The enzymes involved in metabolism interact with drugs, and the most important ones are CYP1A2, CYP2D6 and CYP3A4. P450-Glo™ CYP1A2 Screening System, Vivid® CYP2D6 Cyan Screening Kit and Vivid® CYP3A4 Red Screening Kit were used in this test, and the inhibitory effects of the compounds on CYP1A2, CYP2D6 and CYP3A4 were determined according to the instructions of the kit.

The target of another series is T2, CYP3A4 (Homo sapiens, UniProt P08684).
T2 construct: purchased
T2 sequence (P08684 whole entry): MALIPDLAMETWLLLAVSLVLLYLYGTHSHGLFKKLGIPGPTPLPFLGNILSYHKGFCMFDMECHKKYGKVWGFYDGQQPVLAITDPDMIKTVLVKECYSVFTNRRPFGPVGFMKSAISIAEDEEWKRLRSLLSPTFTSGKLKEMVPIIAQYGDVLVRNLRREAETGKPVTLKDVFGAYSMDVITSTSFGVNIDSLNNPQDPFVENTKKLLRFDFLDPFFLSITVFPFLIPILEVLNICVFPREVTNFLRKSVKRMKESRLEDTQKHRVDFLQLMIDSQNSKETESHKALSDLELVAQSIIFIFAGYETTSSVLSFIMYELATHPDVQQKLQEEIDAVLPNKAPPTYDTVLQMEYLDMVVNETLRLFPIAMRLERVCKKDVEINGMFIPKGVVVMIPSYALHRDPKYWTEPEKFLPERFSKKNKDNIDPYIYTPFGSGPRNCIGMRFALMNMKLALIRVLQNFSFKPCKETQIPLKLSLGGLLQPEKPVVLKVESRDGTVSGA
Kind of series: CYP enzyme inhibition test, Vivid CYP3A4 Red Screening Kit. Format: in vitro ADME. Particulars: for inhibitory effect on CYP3A4: conclusion in words. The method, then: as §1

Series [1] concerns the target T3, hERG potassium channel (Homo sapiens, UniProt Q12809).
Series [2] concerns the target T3, hERG potassium channel. Kind of series: in vitro.
Series [3] deals with T3, hERG potassium channel. Kind of series: cell-based.

Molecules are shown by their SMILES.

T3 sequence (Q12809 whole entry): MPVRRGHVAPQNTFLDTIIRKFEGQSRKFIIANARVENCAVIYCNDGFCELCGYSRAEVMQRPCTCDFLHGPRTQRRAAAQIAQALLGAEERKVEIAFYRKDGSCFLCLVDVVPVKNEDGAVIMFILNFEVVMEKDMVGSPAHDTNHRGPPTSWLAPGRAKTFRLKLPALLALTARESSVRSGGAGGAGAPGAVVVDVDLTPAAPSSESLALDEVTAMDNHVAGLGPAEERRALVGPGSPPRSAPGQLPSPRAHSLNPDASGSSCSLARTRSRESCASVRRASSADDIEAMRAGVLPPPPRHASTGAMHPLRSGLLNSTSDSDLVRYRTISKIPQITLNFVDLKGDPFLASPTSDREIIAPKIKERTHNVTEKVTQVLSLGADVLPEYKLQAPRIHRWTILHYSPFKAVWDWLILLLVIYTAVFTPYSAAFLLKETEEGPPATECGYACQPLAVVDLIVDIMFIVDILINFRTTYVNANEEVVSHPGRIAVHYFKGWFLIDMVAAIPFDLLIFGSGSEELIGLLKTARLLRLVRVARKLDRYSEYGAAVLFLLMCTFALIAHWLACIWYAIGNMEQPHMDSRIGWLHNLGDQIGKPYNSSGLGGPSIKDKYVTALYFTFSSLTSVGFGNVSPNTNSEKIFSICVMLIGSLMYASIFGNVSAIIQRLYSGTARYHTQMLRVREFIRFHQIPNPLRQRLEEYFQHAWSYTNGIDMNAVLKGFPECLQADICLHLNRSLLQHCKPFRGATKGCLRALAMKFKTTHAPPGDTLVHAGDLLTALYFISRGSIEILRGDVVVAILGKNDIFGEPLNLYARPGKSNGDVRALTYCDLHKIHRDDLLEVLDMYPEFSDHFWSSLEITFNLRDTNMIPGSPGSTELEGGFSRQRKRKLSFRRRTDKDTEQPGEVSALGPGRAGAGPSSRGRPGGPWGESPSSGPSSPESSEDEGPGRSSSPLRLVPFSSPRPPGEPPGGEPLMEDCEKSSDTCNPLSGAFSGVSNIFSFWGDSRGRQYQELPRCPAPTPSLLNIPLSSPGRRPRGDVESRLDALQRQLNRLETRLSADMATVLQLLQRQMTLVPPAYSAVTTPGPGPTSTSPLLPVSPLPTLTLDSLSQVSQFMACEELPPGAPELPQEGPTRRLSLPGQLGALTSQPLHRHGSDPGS

On to `C[C@@H]1CN(CCNc2cc(N)nc3cc(-c4ccn[nH]4)sc23)C[C@@H](C)O1` [Compound 124, N^7-(2-((2R,6R)-2,6-dimethylmorpholino)ethyl)-2-(1H-pyrazol-5-yl)thieno[3,2-b]pyridine-5,7-diamine], for which, on CYP1A2, the IC50 is greater than 10 µM and the “inhibitory effect on CYP1A2” value is “no apparent inhibitory effects”. Also, at CYP3A4, the half-inhibitory concentration (IC50) is greater than 10 µM and the “inhibitory effect on CYP3A4” value is listed as “no apparent inhibitory effects”.
On to `Nc1cc(N[C@@H]2CC[C@@H](O)C2)c2sc(-c3ccn[nH]3)cc2n1` [Compound 30, (1R,3R)-3-((5-amino-2-(1H-pyrazol-5-yl)thieno[3,2-b]pyridin-7-yl)amino)cyclopentanol], for which, on hERG potassium channel [1], the “inhibitory effect on hERG” value is listed as “no apparent inhibitory effect”. In addition, the inhibition at 10 μM at hERG potassium channel [2] worked out at 1.91 ± 1.4%. Further, at hERG potassium channel [3], the IC50 was greater than 10 µM.
In the case of `C[C@@H](CCO)Nc1cc(N)nc2cc(-c3ccn[nH]3)sc12` [Compound 125, (S)-3-((5-amino-2-(1H-pyrazol-5-yl)thieno[3,2-b]pyridin-7-yl)amino)butanol], at CYP1A2, the IC50 is greater than 10 µM and the “inhibitory effect on CYP1A2” value is recorded as “no apparent inhibitory effects”. For the same compound, at CYP3A4, the IC50 is greater than 10 µM and the “inhibitory effect on CYP3A4” value is “no apparent inhibitory effects”.
